Experimental findings from patent US20250295628A1 (priority 2022, published 2025) are described below.

The subject of series [1] is chronic cadmium poisoning model rabbits. Briefly: Cadmium-removing effect by intravenous drip in chronic cadmium poisoning rabbits (Example 18). In kind it is in vivo, New Zealand rabbits. Particulars: for Urine β2-microglobulin values: after four weeks of administration. From the text: 205 male New Zealand rabbits, 1.8˜2.2 kg, were randomly divided into a blank control group with 25 rabbits and chronic cadmium poisoning groups with a total of 180 rabbits. The model rabbits were ear margin intravenous injected with a mixed solution containing 1.5 μmol/kg CdCl2 and 30 μmol/kg thioethanol (ME) according to weight, once/d for continuous 5 days, and observed for 35 days. After 35 days, qualified rabbits were selected according to weight, including 18 rabbits in the blank group and 162 rabbits in the poisoning group. The 162 rabbits in the poisoning group were randomly divided into a model group, D3 high-dose group, D3 low-dose group, compound 3B high-dose group, compound 3B low-dose group, composition 3 high-dose group, composition 3 low-dose group, composition 3-powder injection high-dose group, composition 3-powder injection low-dose group, with 18 rabbits in each group. Rabbits in the mode group and the blank group were administered by intravenous drip with the same volume of normal saline, with a rate of 30 drops/min for a dripping time of about 2 h, 1 time/d, 5 d/week. After administration on the last day of week 1, week 2 and week 4, the urine of 0 h˜6 h and the urine of 7 h˜24 h of rabbits were respectively collected; the content of cadmium in blood, urine and kidney, and the cadmium-removing rate from blood and kidney were determined, and the results are shown in Table 6.

In series [2] the test system is rabbit VX2 liver tumor animal model. Briefly: Cisplatin plus composition 3-preparation in rabbit VX2 liver tumor model (Example 34). In kind it is in vivo, New Zealand rabbits. Particulars: cisplatin 4 mg/kg once a week alone, 4 weeks. The protocol:
SPF grade New Zealand rabbits, 4-8 weeks old, 1.8-2.2 kg, with a standard diet and free access to water, were kept in an environment of 12-hour light/dark cycle with a constant temperature of (23±2° C.) and a humidity of (55±15%). The animals were anesthetized, guided by ultrasound, and VX2 hepatoma cells were introduced into the liver by minimally invasive approach, After monitoring New Zealand rabbits for 14 days, and tumor size was monitored with ultrasound; rabbits were randomly divided into 4 groups of 10 animals in each group according to tumor size and body weight, and drug treatment was started on day 15. Rabbits in the control group were intravenously injected with 0.9% sodium chloride injection through the ear vein. […] All New Zealand rabbits were treated for 4 weeks.
Tumor volume was estimated using the formula V=π(a×b^2)/6, where a and b were the longest and shortest diameters of the tumor measured using calipers. The weights of rabbits were monitored every 3-4 days during the experiment, and rabbited were sacrificed at the end of treatment; blood was collected, AST, ALT and CREA were tested, and the results are shown in Table 30. After anesthetizing each rabbit with Sutai 50+ tachypnosis 0.1 ml/kg, carotid artery phlebotomy was used as a termination procedure.

In series [3] the test system is arsenic poisoning model rats. The experiment in a line: Therapeutic effect on arsenic poisoning in Wistar rats (Example 23). The class given is in vivo. Particulars: EDTA 93.5 mg/kg. How it is done: 60 Wistar rats with a body weight of 180˜200 g were taken; rats in a blank group freely drank deionized water for 3 months; rats in arsenic poisoning groups freely drank an aqueous solution containing 100 mg/L·As2O3 for continuous 3 months, with a water mount of 20 ml per day, equivalent to an oral dose of 10 mg/kg, resulting in arsenic poisoning of drinking water-type in rats.
After successful molding, rats were divided to 10 rats in blank group and the remaining 50 rats. All groups were administrated once a day for 5 days/week for a total of 4 weeks. Rats in the blank group and the model group were administered by intravenous drip with normal saline, and rats in the treating group were administered with a normal saline solution of the corresponding drug; all groups had the same administration volume, a drip rate of 30 drops/min, and an dripping time of about 1 h, 1 time/d, 5 d/week, for a total of four weeks.
Urine was collected on day 1 and day 26, arsenic excretion was measured; blood and kidney of rats were taken 24 hours after the 26th day of administration, and blood arsenic concentrations and renal arsenic concentrations were detected with ICPMS; the results are shown in Table 18.

Series [4] relates to mixed chromium, cobalt, nickel and manganese poisoning model rabbits. The experiment in a line: Therapeutic effect on mixed poisoning of chromium, cobalt, nickel and manganese in rabbits (Example 26). In kind it is in vivo, New Zealand rabbits. Particulars: EDTA 93.5 mg/kg, 3 days of treatment. How it is done:
40 New Zealand rabbits with a weight of 1.5˜2.0 kg were taken, and normal saline was injected intravenously at the ear margin of rabbits of the blank group for 5 days. A mixed solution containing 5 mg/ml CrCl3, 3 mg/ml CoCl2, 1 mg/ml NiCl2 and 2 mg/ml MnCl2 was injected intravenously at the ear margin of rabbits of poisoning groups with a dose of 2 ml/kg for 5 days, and observed for 25 days, thus resulting in mixed poisoning models of chromium, cobalt, nickel and manganese in New Zealand rabbits.
After successful molding, there were 8 rabbits in the blank group and 24 rabbits in mixed poisoning groups. Rabbits in all groups were given once daily for 3 days. Rabbits in the blank group and the model group were administered by intravenous dripping with normal saline, and rabbits in the treating groups were administered with a normal saline solution containing the corresponding drug. The administration volume of all groups was the same, with a dripping rate of 30 drops/min, an administration time of about 2 h, 1 time/day for 3 days; the grouping and administration dose of New Zealand rabbit in different groups were shown in Table 21. 24-hour urine was collected every day for a total of 3 days, and the total amounts of chromium, cobalt, nickel and manganese excreted through urine during the 3 days were calculated, as shown in Table 22.

The subject of series [5] is lead poisoning model rats. Briefly: Therapeutic effect on lead poisoning in SD rats (Example 22). The following applies: EDTA 93.5 mg/kg, 4 weeks. In kind it is in vivo. The protocol: 30 SD rats with a body weight of 180˜200 g were taken; rats in the blank group freely drank deionized water containing 12.5 μL acetic acid for 3 weeks.
Rats in all groups were administrated once a day for 5 days/week for a total of 4 weeks. Rats in the blank group and model group were administered by intravenous drip with normal saline, and rats in treating groups were administered with normal saline solution of the corresponding drug; the administration volume of all groups was the same, with a dripping rate of 30 drops/min for a time of about 1 h, 1 time/day, 5 days/week; the grouping and administration dose of rats are shown in Table 14.

Series [6] deals with thallium poisoning model rats. Briefly: Therapeutic effect on thallium poisoning in Wistar rats (Example 24). In kind it is in vivo. Particulars: EDTA 93.5 mg/kg, 4 weeks. The protocol:
After successful molding, rats were divided to 10 rats in the blank group and the remaining 50 rats, and the grouping and administration dose are shown in Table 19. Rats in all groups were administrated once a day for 5 days/week for a total of 4 weeks.
Rats were sacrificed 24 h after administration on the last day; blood, kidney, brain and liver were taken, and thallium contents in these organs were detected by ICP-MS, and the test results are shown in Table 20.

Where [7] appears, read: 1 w of treatment, high-dose group (D3 433, compound 3B 83.5, composition 3 and composition 3-preparation 108 mg/kg).
Where [8] appears, read: 1 w of treatment, low-dose group (D3 108, compound 3B 21, composition 3 and composition 3-preparation 27 mg/kg).
The mark [9] stands for this setting: 2 w of treatment, high-dose group (D3 433, compound 3B 83.5, composition 3 and composition 3-preparation 108 mg/kg).
Where [10] appears, read: 2 w of treatment, low-dose group (D3 108, compound 3B 21, composition 3 and composition 3-preparation 27 mg/kg).
The mark [11] stands for this setting: 4 w of treatment, high-dose group (D3 433, compound 3B 83.5, composition 3 and composition 3-preparation 108 mg/kg).
Where [12] appears, read: 4 w of treatment, low-dose group (D3 108, compound 3B 21, composition 3 and composition 3-preparation 27 mg/kg).

Marks after values point to notes of the source that are not given here.

In the case of `CSCCC(NCC(O)C(O)C(O)C(O)CO)C(=O)[O-].[Na+]` (stereo not shown) [Compound 3B], the Cadmium in blood in series [1] (setting [7]) is 101.54 ± 13.27 µg/L; in series [1] (setting [8]), 102.21 ± 16.38 µg/L; in series [1] (setting [9]) it was 73.18 ± 15.27 µg/L; in series [1] (setting [10]) it was 72.02 ± 16.92 µg/L; in series [1] (setting [11]), 27.92 ± 14.72 µg/L; in series [1] (setting [12]), 28.53 ± 12.62 µg/L. Besides, the Cadmium in kidney came out at 11.94 ± 3.51 µg/L in series [1] (setting [7]); 12.03 ± 3.84 µg/L in series [1] (setting [8]); 12.62 ± 5.37 µg/L in series [1] (setting [9]); 12.57 ± 3.37 µg/L in series [1] (setting [10]); 14.02 ± 2.96 µg/L in series [1] (setting [11]); 13.22 ± 4.20 µg/L in series [1] (setting [12]). In series [1] (21 and 83.5 mg/kg, 1-4 weeks), the “cadmium-removing effect (compared with the model group)” value is “no cadmium-removing effect”. In addition, the “Urine β2-microglobulin values” was found to be 209.42 ± 38.21 ng/L in series [1] (high-dose group (D3 433, compound 3B 83.5, composition 3 and composition 3-preparation 108 mg/kg)); 213.56 ± 31.76 ng/L in series [1] (low-dose group (D3 108, compound 3B 21, composition 3 and composition 3-preparation 27 mg/kg)).
As for `N.N.[Cl][Pt][Cl]` [Cisplatin, cisplatin], in series [2], the ALT was determined as 86.68 ± 26.88 U/L, the AST amounted to 89.20 ± 13.66 U/L and the CREA turned out to be 470.35 ± 85.57 µmol/L.
Turning to `O=C(O)CN(CCN(CC(=O)O)CC(=O)O)CC(=O)O` [EDTA, ethylenediaminetetraacetate], in series [3], the “Total arsenic in urine on day 1” value is 3.27 ± 1.84 µg and the “Total arsenic in urine on day 26” value came to 3.18 ± 1.35 µg. Moreover, in series [3] (24 hours after the 26th day), the Arsenic in blood is 1362.98 ± 319.58 µg/L and the Arsenic in kidney came to 6.08 ± 2.35 µg/g. In series [4], the “Chromium in urine, total excreted in 3 days” value was 178.48 ± 42.69 µg; the “Cobalt in urine, total excreted in 3 days” value was 162.28 ± 44.97 ^ μg; the “Manganese in urine, total excreted in 3 days” value is given as 169.52 ± 32.63 ^ μg; the “Nickel in urine, total excreted in 3 days” value is given as 188.28 ± 63.17 ^ μg. In series [5], the “Blood concentration of Ca2+” value was found to be 89.31 ± 5.28 µg/g, the “Blood concentration of Cu2+” value stood at 754.21 ± 70.59 µg/g, the “Blood concentration of Fe3+” value is 194.72 ± 19.29 µg/g and the “Blood concentration of Mg2+” value is 43.61 ± 3.32 µg/g. In series [5], the “Blood concentration of Zn2+” value is listed as 2942.15 ± 176.08*^ΔΔ μg/g, the Lead in blood stood at 1218.69 ± 129.33 µg/L, the Lead in kidney is 16.54 ± 4.67 ^ μg/g and the Lead in liver came out at 0.47 ± 0.28 µg/g. Besides, in series [6], the Thallium in blood came out at 836.69 ± 168.83 µg/L, the Thallium in kidney was determined as 12.54 ± 4.48 µg/g and the Thallium in liver amounted to 4.27 ± 2.18 µg/g.
